Measurements published in patent US20030108610A1, “Methods and compositions for the delivery of pharmaceutical agents and/or the prevention of adhesions” (priority 1996, published 2003).

How the values were obtained:
[1] = 20% w/w poloxamer 407F
Procedure: Hydrophilic co-surfactants in the form of fatty acid soaps (i.e. sodium oleate, sodium laurate, sodium caprate, and sodium caprylate) were obtained from Nu-Chek Prep. (Elysian, Minn.).
For phase behavior studies, samples were loaded into 5 ml Wheaton vacuoles (Fisher Scientific, Pittsburgh, Pa.), and flame-sealed. The vacuoles were then immersed in a constant temperature bath. For temperatures less than 60° C., phase behavior was determined in a water bath (Koehler, Bohemia, N.Y.). At higher temperatures an oil bath (Haake, model DC3, Germany) was utilized. Temperature was raised in two degree increments from ca. 1° C. to 120° C. Samples were allowed to equilibrate for at least 1 hour at constant temperature prior to examination. Since the cubic liquid crystalline phase is isotropic (i.e. not birefringent), the determination of the gel boundary is somewhat subjective. Once equilibrium was reached, the vials were simply inverted and gravity was allowed to determine if the sample was in the sol or gel state.

[2] = Drug solubilization in poloxamer 407-water systems, apparent distribution coefficient micellar/aqueous phase; assay type: physicochemical
Procedure: The next day the sample was warmed momentarily to 40° C. to hasten solubilization. This process was repeated two or three times to ensure saturation. […] Prior to analysis, the samples were filtered through a 0.2 μm nylon filter syringe to remove unsolubilized drug. Samples were assayed for solubilized drug concentrations by absorbance spectroscopy (see below).
Drug Concentration Determinations. The samples were diluted to a suitable concentration with ethanol (for water insoluble drugs) or DI water. Drug concentrations were measured at the appropriate wavelength for each drug (see Table I) using a UV/Vis spectrophotometer (Beckman model DU-65). Concentrations were determined using Beer's law from the appropriate calibration curve (Table II). Gentamicin sulfate determination was performed by the UCSD Medical Center laboratory.
Where S and So are the concentration of solubilized drug in the presence and absence of poloxamer, respectively.

[3] = In-vitro release rate of drugs in poloxamer gels; assay type: physicochemical; details: within the same poloxamer formulations
Procedure: In-vitro release rate of drugs in poloxamer gels. The in-vitro release rates of drugs in poloxamer-based gels were determined using a modified USP dissolution apparatus (Hanson Research model SR6) equipped with enhancer cells. […] Membranes (1.2 μm cellulose ester membranes, 25 mm diameter, type RAWP) were presoaked in phosphate buffer and placed on the cell. Approximately 0.6 mL of sample in the fluid sol phase was then loaded into each of the enhancer cells. The cells were subsequently closed and the gel phase was allowed to form at room temperature prior to introduction into the dissolution vessels. The dissolution paddles were rotated at a speed of 100 rpm (approximating the hydrodynamic stress found at the peritoneal cavity) and were positioned approximately 1 cm from the top of the cells for all experiments. The in-vitro release of drug from the gels was monitored over a period of 4 hr. One mL samples were collected every 0.5 hr. The vessel was refilled with fresh buffer every time a sample aliquot was removed, and each sample was run in duplicate.

Row | differences in diffusion coefficients or mean dissolution times (MDT) between drugs [3] | SMILES | soap concentration required to melt / completely suppress the 20% poloxamer 407F gel [1] | partitioning between poloxamer micelle and bulk aqueous phase [2]
1 |  | CCCCCCCCCC(=O)[O-].[Na+] [sodium caprate] | > 5% | 
2 | no differences were observed | Cc1ccc(C(=O)c2ccc(CC(=O)O)n2C)cc1 [sodium tolmetin, Tolmetin Sodium] |  | partitions almost entirely into the bulk aqueous phase
3 |  | CCCCCCCC(=O)[O-].[Na+] [8:0 soap, sodium caprylate] | ~11.5% | 
4 |  | CCCCCCCCCCCC(=O)[O-].[Na+] [12:0 soap, sodium laurate] | 2.5% | 
